# In patent publication US8104331B2, “Method and device to extract components contained in a fluid” (Noab Biodiscoveries Inc., priority 2006, dated 2012):
# Columns and labels:
# [1] = Conventional plasma sampling and analysis for pharmacokinetics after i.v. bolus diazepam; settings: rat; for AUMC0-inf / AUMC0-tlast: metabolite, i.v. bolus 0.5 mg/kg diazepam, noncompartmental; for AUMC: 2-compartment analysis
# Experimental: (§1) Animal Experiments: Male Sprague-Dawley rats (Charles River Labs, St. Constant, PQ) with an average weight of 300 g are acclimatized to their new environment for a minimum of 5 days prior to surgery. […] The catheters are plugged with removable metal plugs at the free end and then exteriorized by threading them under the skin and through a small incision at the nape of the neck. Animals are allowed to recover overnight prior to dosing. […] In vivo mouse experiments are conducted with conscious male Swiss Webster mice implanted with a carotid artery catheter. All procedures followed have been reviewed by the NoAb BioDiscoveries Inc. animal care committee and were performed in accordance with the principles of the Canadian Council on Animal Care (CCAC).
# (§2) For each time point (5, 15, 30, 45, 60, 75, 120, 180, 240 and 360 min), the probes are in place for about two (2) minutes before the stated analysis time and blood draws are performed immediately after removing the probes. After the two (2) minute extraction time, the probes are removed, rinsed with water, and stored at −20° C. until the next day, when analysis is performed. […] For SPME calibration, rat whole blood is spiked with appropriate amounts of benzodiazepines and incubated with 10% CO2 atmosphere. The analytical range is 3-750 ng/mL.
# Conventional Plasma Sampling and Analysis: In addition to SPME sampling, 0.2 mL of blood is withdrawn from the interface at each time point. Plasma is isolated by centrifugation at 2500 rpm for 10 minutes and frozen at −20° C. in 2 mL cryovials (Wheaton Science Products, Millville, N.J.) until analysis. For analysis, 0.05 mL of plasma is mixed with 0.25 mL acetonitrile containing 25 ng/mL lorazepam as internal standard in conical centrifuge vials. After vortex mixing (2400 rpm, 5 minutes) and centrifugation (14000 rpm, 7 minutes), 0.2 mL of the supernatant is transferred to a 96-well plate and evaporated to dryness under flowing nitrogen. The residue is dissolved in 0.1 mL acetonitrile/water (75:25) on a shaking bed (150 rpm). Twenty μL is injected for analysis using the same chromatographic conditions as for the analysis of SPME probes. The linear range is 0.1-1000 ng/mL.
# (§3) Areas under the plasma concentration versus time curves (AUCs) represent the areas under the curve from the time of dosing and extrapolated to infinity. […] The total body clearance (CL) is estimated as: Dose/AUC. Mean residence times (MRT) are calculated as: AUMC/AUC, where AUMC denotes the area under the first moment curve. The steady-state volume of distribution (Vss) is calculated as: CL*MRT.
# (§4) AUCs are calculated by the linear/log-linear trapezoidal rule. AUCs represent the areas under the curve from the time of dosing: (1) to the time (tlast) of the last measurable concentration, Clast (AUC0-tlast) and, (2) extrapolated to infinity (AUC0-inf). AUC0-inf is estimated by the addition of AUC0-tlast and Clast/k, where k (or λz) represents the terminal elimination rate constant. K is estimated by weighted (1/Y^2) regression analysis of at least 4 time points from the terminal (log-linear) portion of the concentration versus time curve.
# For validation of the in vivo sampling method taught by the applicant's teachings, blood is sampled after each probe extraction, and plasma is isolated by centrifugation.
# [2] = In vivo SPME sampling of whole blood for pharmacokinetics after i.v. bolus diazepam; settings: rat; for AUMC0-inf / AUMC0-tlast: metabolite, SPME (blood, equilibrium calibration), i.v. bolus 0.5 mg/kg diazepam, noncompartmental; for AUMC: SPME/blood, 2-compartment analysis
# Experimental: as §1
# A device to extract components is attached to the carotid artery catheter prior to dosing each rat or mouse. To insert the probes, the tip of the SPME probe needle is used to pierce the septum of the device. The length of the fiber or wire of the probe is chosen so that the coated wire is completely exposed to the blood flow when the plunger is fully depressed. Before use, the SPME probe is sterilized in an autoclave at 121° C. and 15 psi for about 30 minutes. For validation purposes, blood draws are taken from the same interface after each sampling with SPME. All the probes are for single use.
# as §2, §3, §4
# In vivo experiments are conducted with conscious male Sprague-Dawley rats implanted with jugular vein and carotid artery catheters. The catheters are plugged and exteriorized at the nape of the neck. Prior to dosing, the opening of the device is connected to the carotid artery catheter. The channel of the device is either connected to the jugular vein catheter or is connected to a syringe pump. Connecting the device to the jugular vein catheter allowed for automatic return of the arterial blood, using the pumping action of the heart of the animal. Connecting the device to a syringe allows for precise control of the blood flow rate through the device. The device and the associated tubing are kept warm at 38° C.
# At each sampling time point, a sterile SPME device is placed through the septum into the interface so that only the coated portion of the fiber is exposed to the flowing blood. Blood flow through the device is either allowed to run freely via recirculation to the jugular vein or is induced by the push/pull action of a syringe attached to the channel.
SMILES,AUMC0-inf [1],AUMC0-tlast [1],AUMC0-inf [2],AUMC0-tlast [2],"AUMC ([1]; equilibrium calibration study, diazepam 0.5 mg/kg i.v. bolus)","AUMC ([1]; kinetic calibration study, diazepam 1 mg/kg i.v. bolus)","AUMC ([2]; equilibrium calibration, diazepam 0.5 mg/kg i.v. bolus)","AUMC ([2]; kinetic calibration, diazepam 1 mg/kg i.v. bolus)"
"O=C1CN=C(c2ccccc2)c2cc(Cl)ccc2N1 [Nordiazepam, nordiazepam]",16.5 h^2*ng/mL,6.38 h^2*ng/mL,50.0 h^2*ng/mL,7.86 h^2*ng/mL,,,,
"O=C1Nc2ccc(Cl)cc2C(c2ccccc2)=NC1O (stereo not drawn) [Oxazepam, oxazepam]",293 h^2*ng/mL,176 h^2*ng/mL,834 h^2*ng/mL,278 h^2*ng/mL,,,,
CN1C(=O)CN=C(c2ccccc2)c2cc(Cl)ccc21 [diazepam],,,,,319 h^2*ng/mL,1000 h^2*ng/mL,527 h^2*ng/mL,741 h^2*ng/mL
